Experimental data published in patent US12552783B2, “Modulators of proteolysis and associated methods of use” (Arvinas Operations, Inc., priority 2018, dated 2026).

Biological target: KRas (Homo sapiens, UniProt P01116, G12C)
Assay: KRas degradation in SW1573 cells by Western blot, normalized to GAPDH (data of Table 14)
Type: cell-based
Conditions: SW1573 cells
Description: Cell Lines, Antibodies, and Reagents. NCI-H2030 (CRL-5914) and SW1573 (CRL-2170) cells were purchased from ATCC. Both cell lines are homozygous for the G12C mutation in KRas. NCI-H2030 cells were cultured in RPMI-1640 medium containing 1% penicillin-streptomycin and 10% fetal bovine serum (FBS). SW1573 cells were cultured in DMEM containing 1% penicillin-streptomycin and 10% FBS. The KRas detection antibody (Cat. No. LS-C175665) was purchased from LifeSpan Biosciences and was used at a dilution of 1:2000. GAPDH was detected using an antibody purchased from Cell Signaling Technology (Cat. No. 5174) and was diluted 1:3000. Secondary anti-mouse and anti-rabbit detection antibodies were purchased from Cell Signaling Technology (Cat. Nos. 7076 and 7074, respectively).
Compound Treatment and Western Blotting of the Data of Table 14. Either NCI-H2030 or SW1573 cells were plated in 12-well plates and allowed to adhere overnight at 37° C. in an incubator containing 5% CO2. The following day, the medium was replaced with the appropriate medium lacking FBS to induce starvation. Cells were returned to the incubator for an additional 24 hours following media exchange. […] Cells were treated with VHL-based compounds for 24 hours and all other compounds for 72 hours. Following treatment, cells were lysed in RIPA buffer (Thermo Fisher Cat. No. 89900) containing phosphatase (Thermo Fisher Cat. No. 1861277) and protease (Thermo Fisher Cat. No. 78429) inhibitor cocktails. Lysates were cleared at 13,000 rpm for 15 minutes and supernatants were assayed for total protein concentration using the Pierce BCA assay system (Thermo Fisher Cat. No. 23225). For each sample, 10 μg total protein was resolved on a 12% Bis-Tris gel and then transferred to a nitrocellulose membrane. After blocking in 3% BSA in TBST (Tris-buffered Saline with 0.1% Tween-20) for 1 hour at room temperature, membranes were probed with the primary antibody (LS Bio Cat. No. LS-C175665) overnight at 4° C. After incubation with the secondary antibody, the following day membranes were visualized using the SuperSignal™ West Femto substrate (Thermo Fisher Cat. No. 34095). The KRas signal in each lane was normalized to GAPDH and percent degradation was either estimated as less than 25% by visual inspection (C in Table 13) or quantitated relative to the DMSO control lane using BIO-RAD Image Lab 5.2.1, and all data was plotted using GraphPad PRISM 6.07.
DC50 is the half-maximal degradation concentration—i.e., the concentration at which 50% degradation is observed. DMax is the maximum degradation efficacy is achieved—i.e., the maximal degradation observed) degradation data.

Measured: Percent Degradation at Indicated Concentration (μM)

C=CC(=O)N1CCN(c2nc(O[C@H](C)CN3CCC(OCCNc4cccc5c4C(=O)N(C4CCC(=O)NC4=O)C5=O)CC3)nc3c2CCN(c2cc(O)cc4ccccc24)C3)CC1 (stereo partly drawn) [compound 411, 4-((2-((1-((R)-2-((4-(4-acryloylpiperazin-1-yl)-7-(3-hydroxynaphthalen-1-yl)-5,6,7,8-tetrahydropyrido[3,4-d]pyrimidin-2-yl)oxy)propyl)piperidin-4-yl)oxy)ethyl)amino)-2-(2,6-dioxopiperidin-3-yl)isoindoline-1,3-dione]
C (Percent Degradation: C ≤ 35): 0.1 μM | 0.3 μM | 1 μM

C=CC(=O)N1CCN(c2nc(O[C@H](C)CN3CCC(OCCOCCOCCOCCOCCNc4cccc5c4C(=O)N(C4CCC(=O)NC4=O)C5=O)CC3)nc3c2CCN(c2cc(O)cc4ccccc24)C3)CC1 (stereo partly drawn) [compound 415]
C (Percent Degradation: C ≤ 35): 0.1 μM | 0.3 μM | 1 μM

C=CC(=O)N1CCN(c2nc(O[C@H](C)CN3CCC(OCCOCCOc4ccc5c(c4)C(=O)N(C4CCC(=O)NC4=O)C5=O)CC3)nc3c2CCN(c2cc(O)cc4ccccc24)C3)CC1 (stereo partly drawn) [compound 417, 5-(2-(2-((1-((R)-2-((4-(4-acryloylpiperazin-1-yl)-7-(3-hydroxynaphthalen-1-yl)-5,6,7,8-tetrahydropyrido[3,4-d]pyrimidin-2-yl)oxy)propyl)piperidin-4-yl)oxy)ethoxy)ethoxy)-2-(2,6 dioxopiperidin-3-yl)isoindoline-1,3-dione]
C (Percent Degradation: C ≤ 35): 0.1 μM | 0.3 μM | 1 μM

C=CC(=O)N1CCN(c2nc(O[C@H](C)CN3CCC(OCCOCCOCCOCCOCCOc4ccc5c(c4)C(=O)N(C4CCC(=O)NC4=O)C5=O)CC3)nc3c2CCN(c2cc(O)cc4ccccc24)C3)CC1 (stereo partly drawn) [compound 420, 5-((14-((1-((R)-2-((4-(4-acryloylpiperazin-1-yl)-7-(3-hydroxynaphthalen-1-yl)-5,6,7,8-tetrahydropyrido[3,4-d]pylimidin-2-yl)oxy)propyl)piperidin-4-yl)oxy)-3,6,9,12-tetraoxatetradecyl)oxy)-2-(2,6-dioxopiperidin-3-yl)isoindoline-1,3-dione]
C (Percent Degradation: C ≤ 35): 0.1 μM | 0.3 μM | 1 μM

C=CC(=O)N1CCN(c2nc(O[C@H](C)CN3CCC(OCCOc4ccc5c(c4)CN(C4CCC(=O)NC4=O)C5=O)CC3)nc3c2CCN(c2cc(O)cc4ccccc24)C3)CC1 (stereo partly drawn) [compound 421]
C (Percent Degradation: C ≤ 35): 0.1 μM | 0.3 μM | 1 μM

C=CC(=O)N1CCN(c2nc(O[C@H](C)CN3CCC(OCCOCCOCCOCCOc4ccc5c(c4)CN(C4CCC(=O)NC4=O)C5=O)CC3)nc3c2CCN(c2cc(O)cc4ccccc24)C3)CC1 (stereo partly drawn) [compound 424, 3-(5-(2-(2-(2-(2-((1-((R)-2-((4-(4-acryloylpiperazin-1-yl)-7-(3-hydroxynaphthalen-1-yl)-5,6,7,8-tetrahydropyrido[3,4-d]pyrimidin-2-yl)oxy)propyl)piperidin-4-yl)oxy)ethoxy)ethoxy)ethoxy)ethoxy)-1-oxoisoindolin-2-yl)piperidine-2,6-dione]
C (Percent Degradation: C ≤ 35): 0.1 μM | 0.3 μM | 1 μM

C=CC(=O)N1CCN(c2nc(O[C@H](C)CN3CCC(OCCOCCOCCOCCOCCOc4ccc5c(c4)CN(C4CCC(=O)NC4=O)C5=O)CC3)nc3c2CCN(c2cc(O)cc4ccccc24)C3)CC1 (stereo partly drawn) [compound 425, 3-(5-((14-((1-((R)-2-((4-(4-acryloylpiperazin-1-yl)-7-(3-hydroxynaphthalen-1-yl)-5,6,7,8-tetrahydropyrido[3,4-d]pyrimidin-2-yl)oxy)propyl)piperidin-4-yl)oxy)-3,6,9,12-tetraoxatetradecyl)oxy)-1-oxoisoindolin-2-yl)piperidine-2,6-dione]
C (Percent Degradation: C ≤ 35): 0.1 μM | 0.3 μM | 1 μM

C=CC(=O)N1CCN(c2nc(O[C@H](C)CN3CCC(OCCOc4ccc5c(c4)C(=O)N(C4CCC(=O)NC4=O)C5=O)CC3)nc3c(F)c(-c4cc(O)cc5ccccc45)c(Cl)cc23)CC1 (stereo partly drawn) [compound 426, 5-(2-((1-((2R)-2-((4-(4-acryloylpiperazin-1-yl)-6-chloro-8-fluoro-7-(3-hydroxynaphthalen-1-yl)quinazolin-2-yl)oxy)propyl)piperidin-4-yl)oxy)ethoxy)-2-(2,6-dioxopiperidin-3-yl)isoindoline-1,3-dione]
C (Percent Degradation: C ≤ 35): 0.1 μM | 0.3 μM | 1 μM

C=CC(=O)N1CCN(c2nc(O[C@H](C)CN3CCC(OCCOCCOc4ccc5c(c4)C(=O)N(C4CCC(=O)NC4=O)C5=O)CC3)nc3c(F)c(-c4cc(O)cc5ccccc45)c(Cl)cc23)CC1 (stereo partly drawn) [compound 427, 5-(2-(2-((1-((2R)-2-((4-(4-acryloylpiperazin-1-yl)-6-chloro-8-fluoro-7-(3-hydroxynaphthalen-1-yl)quinazolin-2-yl)oxy)propyl)piperidin-4-yl)oxy)ethoxy)ethoxy)-2-(2,6-dioxopiperidin-3-yl)isoindoline-1,3-dione]
C (Percent Degradation: C ≤ 35): 0.1 μM | 0.3 μM | 1 μM

C=CC(=O)N1CCN(c2nc(O[C@H](C)CN3CCC(OCCOCCOCCOc4ccc5c(c4)C(=O)N(C4CCC(=O)NC4=O)C5=O)CC3)nc3c(F)c(-c4cc(O)cc5ccccc45)c(Cl)cc23)CC1 (stereo partly drawn) [compound 428, 5-(2-(2-(2-((1-((2R)-2-((4-(4-acryloylpiperazin-1-yl)-6-chloro-8-fluoro-7-(3-hydroxynaphthalen-1-yl)quinazolin-2-yl)oxy)propyl)piperidin-4-yl)oxy)ethoxy)ethoxy)ethoxy)-2-(2,6-dioxopiperidin-3-yl)isoindoline-1,3-dione]
C (Percent Degradation: C ≤ 35): 0.1 μM | 0.3 μM | 1 μM
